Where “and” joins values, the source holds several entries; their conditions need not be identical. Identical values can stand only once. Entries after “also recorded” stand apart in the source; their conditions may differ. Like-named read-outs stand apart in the source and are kept apart here.
How the values were obtained:
[1] = Stability on incubation in artificial gastrointestinal fluids at 37°C; assay type: in vitro ADME; settings: up to 3 h, 100 μg/ml
Procedure: Blank artificial gastric fluid: hydrochloric acid (2.75 mol/L, 16.4 ml) was diluted with 800 ml of water, adjusted to the pH 1.3 with 0.1 mol/L hydrochloric acid solution, diluted with water and diluted to 1000 ml.
Artificial gastric fluid: hydrochloric acid (2.75 mol/L, 16.4 ml) was diluted with 800 ml of water, and then 10 g of pepsin was added and shaken well until dissolved. The pH was adjusted to 1.3 with 0.1 mol/L hydrochloric acid solution, and then the artificial gastric fluid solution was diluted with water to 1000 ml.
Blank artificial intestinal fluid: potassium dihydrogen phosphate (6.8 g) was diluted with 500 ml of water, and shaken until dissolved. The pH was adjusted to 6.8 with 0.1 mol/L sodium hydroxide solution, and the solution was diluted with water to 1000 ml. […]
The test tube containing the drug concentration was incubated in a constant temperature water bath at 37°C. Each sample was obtained at 0, 0.5, 1.0, 1.5, 2.0, and 3.0 h, and the drug concentration was measured. […]
Fifty microliters of the above solution was accurately drawn at different incubation time points, and 155 μl of ice-cold methanol (1% formic acid) and 5 μl of IS solution were added. […] An appropriate amount of the supernatant was placed into the sample vial, and analyzed. […]
All samples were analyzed using the established LC‒MS/MS method, and MultiQuant 3.0 software was used for data processing. […]

[2] = Stability on incubation in human plasma at 37°C; assay type: in vitro ADME; settings: up to 3 h, 1 μg/ml
Procedure: The test tube containing the drug concentration was incubated in a constant temperature water bath at 37°C. Each sample was obtained at 0, 0.5, 1.0, 1.5, 2.0, and 3.0 h, and the drug concentration was measured.
Fifty microliters of the above solution was accurately drawn at different incubation time points, and 155 μl of ice-cold methanol (1% formic acid) and 5 μl of IS solution were added. The mixture was vortexed for 60 s and centrifuged at 14,000 rpm for 10 min. Then, 165 μl of supernatant was transferred to a new tube and evaporated to dryness under a gentle stream of nitrogen at room temperature. The residue was dissolved in 50 μl 20% methanol (1% formic acid), vortexed for 60 s and centrifuged at 14,000 rpm for 10 min. An appropriate amount of the supernatant was placed into the sample vial, and analyzed. Each experiment was repeated 3 times.
The plasma sample concentration was 1 μg/ml, and the concentration of the other samples was 100 μg/ml.
All samples were analyzed using the established LC‒MS/MS method, and MultiQuant 3.0 software was used for data processing. The glytrexate concentration at each time point was calculated, the remaining percentage was calculated, and the concentration change trend was analyzed.

[3] = Pharmacokinetics and bioavailability in rats after single oral and intravenous doses; assay type: in vivo, Sprague-Dawley rats; settings: rat; for AUC(0-inf) / Cmax / half-life / AUC / MRT last / bioavailability / CL/F / Tmax: male, Sprague-Dawley, plasma; for AUC: read-out: AUC0-tn; for MRT last: read-out: MRT0-t; for CL/F / Tmax: po
Procedure: Pharmacokinetic and bioavailability studies were carried out in twenty-four male Sprague–Dawley rats. The rats were randomly divided into four groups (n = 6). All of them were fasted for 12 h before administration and were allowed to drink freely. Approximately 300 μl of blood was collected from the posterior canthus venous plexus of each rat into heparinized tubes at 0.1, 0.16, 0.25, 0.5, 1, 2, 4, 8, 12, and 24 h after a single oral administration (i.g.) (12.5, 25, and 50 mg/kg) or at 0.03 h, 0.08, 0.25, 0.5, 1, 2, 4, 6, 8, 12, and 24 h after a single i.v. injection (2 mg/kg). The blood samples were processed to obtain the plasma via centrifugation at 3500 rpm for 10 min and then stored at −80°C until LC–MS/MS analysis.
The plasma samples obtained were processed using the method described in Section 2.4 and then analyzed using the established LC–MS/MS method. The data were processed using MultiQuant 3.0 software. According to the results of the blood drug concentration measurement in rats, the noncompartmental model in DAS 3.2.8 software was used to calculate the corresponding pharmacokinetic parameters, including peak time (Tmax), elimination half-life (T1/2), area under the drug-time curve (AUC0-t, AUC0-∞), maximum plasma concentration (Cmax), apparent volume of distribution (Vz/F), clearance rate (Clz/F), and average residence time (MRT0-t). GraphPad Prism 8 software was used to construct the trend chart of the changes in various parameters in plasma samples based on the measurements to analyze the possible pharmacokinetic characteristics of glytrexate.
If glytrexate has linear kinetic characteristics, the absolute bioavailability can be calculated according to the bioavailability formula, Fabs=(AUCT·Div)/(AUCiv·DT) × 100%, where AUC represents the area under the plasma concentration-time curve. The subscripts T and iv represent oral and intravenous injection, respectively, and D represents the administered dose. The data obtained in the study are expressed as the mean values plus or minus the standard deviation.

stability in artificial gastrointestinal fluid (in words) [1]: did not remain stable
AUC(0-inf) ([3]; intravenous 2 mg/kg): 10200 ± 1710 ng·h/mL
Cmax ([3]; intravenous 2 mg/kg): 17600 ± 767 ng/mL
half-life ([3]; intravenous 2 mg/kg): 2.78 ± 0.26 h
AUC ([3]; intravenous 2 mg/kg): 10200 ± 1710 ng·h/mL
MRT last ([3]; intravenous 2 mg/kg): 0.91 ± 0.05 h
AUC(0-inf) ([3]; oral 12.5 mg/kg): 370 ± 26 ng·h/mL
Cmax ([3]; oral 12.5 mg/kg): 107 ± 12.1 ng/mL
half-life ([3]; oral 12.5 mg/kg): 2.15 ± 0.16 h
bioavailability ([3]; oral 12.5 mg/kg vs intravenous 2 mg/kg, read-out: F (bioavailability)): 0.57 ± 0.08%
AUC ([3]; oral 12.5 mg/kg): 362 ± 24.6 ng·h/mL
MRT last ([3]; oral 12.5 mg/kg): 3.12 ± 0.14 h
AUC(0-inf) ([3]; oral 25 mg/kg): 750 ± 30.2 ng·h/mL
Cmax ([3]; oral 25 mg/kg): 496 ± 19.8 ng/mL
half-life ([3]; oral 25 mg/kg): 2.25 ± 0.093 h
bioavailability ([3]; oral 25 mg/kg vs intravenous 2 mg/kg, read-out: F (bioavailability)): 0.59 ± 0.06%
AUC ([3]; oral 25 mg/kg): 750 ± 30.2 ng·h/mL
MRT last ([3]; oral 25 mg/kg): 2.95 ± 0.16 h
AUC(0-inf) ([3]; oral 50 mg/kg): 2960 ± 190 ng·h/mL
Cmax ([3]; oral 50 mg/kg): 1290 ± 109 ng/mL
half-life ([3]; oral 50 mg/kg): 2.66 ± 0.15 h
bioavailability ([3]; oral 50 mg/kg vs intravenous 2 mg/kg, read-out: F (bioavailability)): 1.15 ± 0.07%
AUC ([3]; oral 50 mg/kg): 2960 ± 189 ng·h/mL
MRT last ([3]; oral 50 mg/kg): 3.16 ± 0.096 h
bioavailability ([3]; oral dose range 12.5–50 mg/kg, read-out: oral bioavailability): 0.57 to 1.15%
CL/F ([3]; 12.5 mg/kg, oral 12.5 mg/kg): 565 mL/min/kg
Tmax ([3]; 12.5 mg/kg, oral 12.5 mg/kg, read-out: Tmax): 0.5 h
CL/F ([3]; 25 mg/kg, oral 25 mg/kg): 556 mL/min/kg
Tmax ([3]; 25 mg/kg, oral 25 mg/kg, read-out: Tmax): 0.5 h
CL/F ([3]; 50 mg/kg, oral 50 mg/kg): 282 mL/min/kg
Tmax ([3]; 50 mg/kg, oral 50 mg/kg, read-out: Tmax): 0.5 h
Tmax ([3]; 50 mg/kg, single oral administration 12.5, 25 and 50 mg/kg, read-out: Tmax (time of peak blood concentration)): 0.5 h
intravenous AUC of glytrexate relative to pemetrexed ([3]; glytrexate 2 mg/kg vs pemetrexed 10 mg/kg): approximately 1.63 fold
intravenous T1/2 of glytrexate relative to pemetrexed ([3]; intravenous): approximately 5 fold
Cl/F ([3]; intravenous 2 mg/kg): 3.33 ± 0.5 mL/min/kg
V/F ([3]; intravenous 2 mg/kg): 0.80 ± 0.15 L/kg
Cl/F ([3]; oral 12.5 mg/kg, 12.5 mg/kg): 564.8 ± 42.8 mL/min/kg
Cl/F ([3]; oral 25 mg/kg, 25 mg/kg): 556.2 ± 22 mL/min/kg
time of highest plasma concentration ([3]; single i.v. injection 2 mg/kg): 0.03 h
Structure (SMILES): Nc1nc2[nH]c(CC(=O)NCC(=O)N[C@@H](CCC(=O)O)C(=O)O)cc2c(=O)[nH]1 [glytrexate, (S)-2-{2-[2-(2-amino-4-oxo-4,7-dihydro-3H-pyrrolo [2,3-d]pyrimidin-6-yl)-acetylamino]-acetylamino}-pentanedioic acid]
stability in human plasma compared with other matrices (in words) [2]: more stable in human plasma than in human liver microsomes and artificial gastrointestinal fluid; also recorded: more stable in human plasma than in rat plasma and in human liver microsomes; also recorded: greatest amount of remaining glytrexate was found in human plasma
V/F ([3]; oral 12.5 mg/kg, 12.5 mg/kg): 104.724 ± 6.709 L/kg and 104.72 ± 6.71 L/kg
V/F ([3]; oral 25 mg/kg, 25 mg/kg): 108.42 ± 7.698 L/kg and 108.42 ± 7.70 L/kg
V/F ([3]; oral 50 mg/kg, 50 mg/kg): 64.832 ± 4.529 L/kg and 64.83 ± 4.53 L/kg

From publication PMC9577195, “Pharmacokinetics, bioavailability, and plasma protein binding study of glytrexate, a novel multitarget antifolate” (Frontiers in Pharmacology, 2022)
